pKi: −log10 of the molar value.
Columns and labels:
Mus musculus [1] = assay: Toxicity in po dosed Kunming mouse assessed as induction of catalepsy; type: organism-based; settings: in vivo
Mus musculus [2] = assay: Antipsychotic activity in po dosed Kunming mouse assessed as reduction in MK801-induced hyperactivity compound administered 30 mins prior to MK801 challenge measured for 90 mins post challenge; type: functional
Mus musculus [3] = assay: Antipsychotic activity in po dosed Kunming mouse assessed as reversal of apomorphine-induced cage climbing response compound administered 30 mins prior to apomorphine challenge measured for 30 mins post challenge; type: functional
D(2) dopamine receptor = D(2) dopamine receptor (Rattus norvegicus, UniProt P61169); assay: Displacement of [3H]spiperone from dopamine D2 receptor in Sprague-Dawley rat striatum homogenate after 30 mins by liquid scintillation counting
[4] = biological target: 5-hydroxytryptamine receptor 2A (Rattus norvegicus, UniProt P14842); assay: Displacement of [3H]Ketanserin from 5HT2A receptor in Sprague-Dawley rat brain cortex homogenate after 30 mins by liquid scintillation counting; type: tissue-based
[5] = biological target: T1, 5-hydroxytryptamine receptor 1A (Rattus norvegicus, UniProt P19327); assay: Displacement of [3H]8-OH-DPAT from 5HT1A receptor in Sprague-Dawley rat brain cortex homogenate after 30 mins by liquid scintillation counting; type: tissue-based
T1 sequence (P19327 whole entry): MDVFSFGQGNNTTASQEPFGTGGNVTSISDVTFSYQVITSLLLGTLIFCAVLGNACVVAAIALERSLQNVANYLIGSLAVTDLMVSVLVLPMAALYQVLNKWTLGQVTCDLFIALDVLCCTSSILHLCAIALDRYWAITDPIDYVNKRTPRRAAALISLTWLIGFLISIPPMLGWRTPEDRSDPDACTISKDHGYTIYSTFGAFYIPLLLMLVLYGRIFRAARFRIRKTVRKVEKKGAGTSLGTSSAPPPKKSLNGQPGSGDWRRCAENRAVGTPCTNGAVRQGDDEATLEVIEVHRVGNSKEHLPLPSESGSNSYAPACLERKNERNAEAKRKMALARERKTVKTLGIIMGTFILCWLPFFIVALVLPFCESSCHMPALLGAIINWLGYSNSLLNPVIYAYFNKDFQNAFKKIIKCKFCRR

Histamine H1 receptor = Histamine H1 receptor (Cavia porcellus, UniProt P31389); assay: Displacement of [3H]mepyramine from histamine H1 receptor in guinea pig cerebellum homogenate after 60 mins by liquid scintillation counting; type: tissue-based
D(3) dopamine receptor = D(3) dopamine receptor (Rattus norvegicus, UniProt P19020); assay: Displacement of [3H]7-OH-DPA from dopamine D3 receptor in Sprague-Dawley rat olfactory tubercle homogenate after 60 mins by liquid scintillation counting; type: tissue-based
[6] = Acute toxicity in po dosed Kunming mouse assessed as survival measured after 24 hrs; type: organism-based; settings: in vivo
in vivo [7] = settings: Kunming, mouse, po
Description: Therapeutic index, ratio of ED50 for induction of catalepsy to ED50 for antipsychotic activity in po dosed Kunming mouse assessed as reduction in MK801-induced hyperactivity

in vivo [8] = settings: Kunming, mouse, po; remark: listed apart in the source
Description: Therapeutic index, ratio of ED50 for induction of catalepsy to ED50 for antipsychotic activity in po dosed Kunming mouse assessed as reversal of apomorphine-induced cage climbing response

D(2) dopamine receptor, sequence (P61169 whole entry): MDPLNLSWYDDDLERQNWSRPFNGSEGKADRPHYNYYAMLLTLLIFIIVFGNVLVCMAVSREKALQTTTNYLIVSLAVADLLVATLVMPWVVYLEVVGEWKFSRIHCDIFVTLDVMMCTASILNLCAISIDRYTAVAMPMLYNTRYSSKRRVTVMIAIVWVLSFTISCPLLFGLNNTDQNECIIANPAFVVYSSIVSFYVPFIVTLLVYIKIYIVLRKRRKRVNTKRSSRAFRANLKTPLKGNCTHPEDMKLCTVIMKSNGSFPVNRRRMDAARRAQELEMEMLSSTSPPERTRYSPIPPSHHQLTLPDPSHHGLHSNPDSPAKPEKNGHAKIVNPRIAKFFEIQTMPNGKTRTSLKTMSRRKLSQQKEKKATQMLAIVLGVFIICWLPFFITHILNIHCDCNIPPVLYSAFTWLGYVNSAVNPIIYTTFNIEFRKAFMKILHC
D(3) dopamine receptor, sequence (P19020 whole entry): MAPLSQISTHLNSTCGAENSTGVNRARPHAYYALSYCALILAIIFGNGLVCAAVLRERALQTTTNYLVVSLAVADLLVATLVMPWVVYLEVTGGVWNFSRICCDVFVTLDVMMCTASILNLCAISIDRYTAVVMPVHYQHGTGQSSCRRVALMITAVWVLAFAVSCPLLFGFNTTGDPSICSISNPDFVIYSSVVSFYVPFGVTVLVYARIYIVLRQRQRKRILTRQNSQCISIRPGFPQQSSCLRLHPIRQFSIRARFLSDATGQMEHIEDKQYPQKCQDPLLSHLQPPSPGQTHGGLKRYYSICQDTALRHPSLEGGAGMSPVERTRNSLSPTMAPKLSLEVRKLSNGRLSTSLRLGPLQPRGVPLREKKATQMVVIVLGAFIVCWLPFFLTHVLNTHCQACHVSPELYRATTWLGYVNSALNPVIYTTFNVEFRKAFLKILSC
Histamine H1 receptor, sequence (P31389 whole entry): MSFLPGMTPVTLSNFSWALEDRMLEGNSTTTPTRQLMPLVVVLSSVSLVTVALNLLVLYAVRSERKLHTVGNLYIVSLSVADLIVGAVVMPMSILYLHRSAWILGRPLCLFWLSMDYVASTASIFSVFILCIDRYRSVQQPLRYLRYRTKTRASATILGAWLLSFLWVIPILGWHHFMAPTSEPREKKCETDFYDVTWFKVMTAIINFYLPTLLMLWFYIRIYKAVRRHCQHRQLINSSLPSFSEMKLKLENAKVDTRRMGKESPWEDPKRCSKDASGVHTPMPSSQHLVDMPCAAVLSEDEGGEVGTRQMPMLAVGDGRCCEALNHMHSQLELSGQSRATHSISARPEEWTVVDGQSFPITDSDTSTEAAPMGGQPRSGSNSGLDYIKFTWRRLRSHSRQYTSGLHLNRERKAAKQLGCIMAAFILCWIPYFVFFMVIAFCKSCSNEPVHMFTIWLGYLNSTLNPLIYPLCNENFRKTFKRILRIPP
5-hydroxytryptamine receptor 2A, sequence (P14842 whole entry): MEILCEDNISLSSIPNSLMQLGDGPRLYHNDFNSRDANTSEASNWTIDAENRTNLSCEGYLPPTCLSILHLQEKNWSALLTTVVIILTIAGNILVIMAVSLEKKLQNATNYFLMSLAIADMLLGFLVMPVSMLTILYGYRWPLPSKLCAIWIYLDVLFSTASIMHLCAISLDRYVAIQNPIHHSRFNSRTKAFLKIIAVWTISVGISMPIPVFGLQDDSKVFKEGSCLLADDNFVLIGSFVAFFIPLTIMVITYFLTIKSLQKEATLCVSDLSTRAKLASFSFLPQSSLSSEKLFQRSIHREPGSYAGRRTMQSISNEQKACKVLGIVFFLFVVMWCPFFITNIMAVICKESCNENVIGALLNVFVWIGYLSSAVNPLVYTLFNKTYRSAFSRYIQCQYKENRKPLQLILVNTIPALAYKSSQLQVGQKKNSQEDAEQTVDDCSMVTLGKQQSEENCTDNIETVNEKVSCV

SMILES | pKi (D(2) dopamine receptor) | pKi [4] | pKi [5] | other results
CN1CCN(C2=Nc3cc(Cl)ccc3Nc3ccccc32)CC1 [CLOZAPINE] | – | – | – | ED50 (Mus musculus [1]): 46.14 mg/kg; ED50 (Mus musculus [2]): 2.25 mg/kg; ED50 (Mus musculus [3]): 3.97 mg/kg
Cc1cccc(N2CCN(CCCCOc3ccc4c5c(c(=O)oc4c3)CCC5)CC2)c1C | 5.80 | 7.93 | 7.66 | –
O=c1oc2cc(OCCCCN3CCC(c4nc5ccccc5o4)CC3)ccc2c2c1CCC2 | 5.72 | 7.79 | 7.57 | –
O=c1oc2cc(OCCCCN3CCN(c4nsc5ccccc45)CC3)ccc2c2c1CCC2 | – | 6.19 | 6.01 | –
O=c1oc2c(Cl)c(OCCCCN3CCC(c4noc5cc(F)ccc45)CC3)ccc2c2c1CCC2 | 7.72 | 8.28 | 7.94 | pKi (Histamine H1 receptor): 7.87; pKi (D(3) dopamine receptor): 7.86
COc1ccccc1N1CCN(CCCCOc2ccc3c4c(c(=O)oc3c2)CCC4)CC1 | 8.25 | 8.41 | 9.70 | pKi (Histamine H1 receptor): 6.16; pKi (D(3) dopamine receptor): 6.75
O=c1oc2cc(OCCCCN3CCN(c4cccc(Cl)c4Cl)CC3)ccc2c2c1CCC2 | 5.72 | 7.10 | 7.17 | –
COc1ccccc1N1CCN(CCCOc2ccc3c4c(c(=O)oc3c2)CCC4)CC1 | < 5.00 | 6.21 | 6.19 | –
Cc1c(OCCCCN2CCC(c3noc4cc(F)ccc34)CC2)ccc2c3c(c(=O)oc12)CCC3 | 7.90 | 8.66 | 8.11 | ED50 (Mus musculus [1]): 66.47 mg/kg; Activity (Mus musculus [2]): Dose-dependent effect; ED50 (Mus musculus [2]): 0.31 mg/kg; Activity (Mus musculus [3]): Dose-dependent effect; ED50 (Mus musculus [3]): 0.61 mg/kg; LD50 at 24 h [6]: > 2000 mg/kg; pKi (Histamine H1 receptor): 5.74; pKi (D(3) dopamine receptor): 7.87; selectivity ratio (in vivo [7]): 214; selectivity ratio (in vivo [8]): 109
O=c1oc2cc(OCCCCCN3CCC(c4noc5cc(F)ccc45)CC3)ccc2c2c1CCC2 | 6.16 | 6.37 | 5.98 | –
O=c1oc2cc(OCCCCN3CCC(c4noc5cc(F)ccc45)CC3)c(Cl)cc2c2c1CCC2 | 6.84 | 6.60 | 6.86 | –
O=C(CCCN1CCC(O)(c2ccc(Cl)cc2)CC1)c1ccc(F)cc1 [HALOPERIDOL] | – | – | – | ED50 (Mus musculus [1]): 0.38 mg/kg; ED50 (Mus musculus [2]): 0.16 mg/kg; ED50 (Mus musculus [3]): 0.14 mg/kg; selectivity ratio (in vivo [7]): 2.38; selectivity ratio (in vivo [8]): 2.71
COc1ccccc1N1CCN(CCCCOc2ccc3c4c(c(=O)oc3c2C)CCC4)CC1 | 6.24 | 6.76 | 6.46 | –
COc1ccccc1N1CCN(CCCCOc2ccc3c4c(c(=O)oc3c2Cl)CCC4)CC1 | 6.80 | 6.98 | 6.80 | –
O=c1oc2cc(OCCCCN3CCN(c4cccc(C(F)(F)F)c4)CC3)ccc2c2c1CCC2 | < 5.00 | 6.76 | 7.71 | –
O=c1oc2cc(OCCCCN3CCC(c4nc5ccccc5s4)CC3)ccc2c2c1CCC2 | < 5.00 | 5.73 | 5.80 | –
O=c1oc2cc(OCCCCN3CCC(c4noc5cc(F)ccc45)CC3)ccc2c2c1CCCC2 | 6.20 | 6.90 | < 5.00 | –
COc1ccc(N2CCN(CCCCOc3ccc4c5c(c(=O)oc4c3)CCC5)CC2)cc1 | < 5.00 | < 5.00 | 5.91 | –
O=c1oc2cc(OCCCN3CCC(c4noc5cc(F)ccc45)CC3)ccc2c2c1CCC2 | < 5.00 | 6.73 | < 5.00 | –
O=c1oc2cc(OCCCCN3CCC(c4noc5cc(F)ccc45)CC3)ccc2c2ccccc12 | < 5.00 | < 5.00 | < 5.00 | –
Cc1nc2n(c(=O)c1CCN1CCC(c3noc4cc(F)ccc34)CC1)CCCC2 [RISPERIDONE] | – | – | – | ED50 (Mus musculus [1]): 0.43 mg/kg; ED50 (Mus musculus [2]): 0.017 mg/kg; ED50 (Mus musculus [3]): 0.02 mg/kg
O=c1oc2cc(OCCCCN3CCC(c4noc5cc(F)ccc45)CC3)ccc2c2c1CCC2 | 7.61 | 7.88 | 7.32 | pKi (Histamine H1 receptor): 7.67; pKi (D(3) dopamine receptor): 6.96
COc1ccccc1N1CCN(CCCCOc2cc3oc(=O)c4c(c3cc2Cl)CCC4)CC1 | < 5.00 | 7.44 | 7.07 | –
O=c1oc2cc(OCCCN3CCC(c4noc5cc(F)ccc45)CC3)ccc2c2ccccc12 | < 5.00 | < 5.00 | < 5.00 | –
COc1cccc(N2CCN(CCCCOc3ccc4c5c(c(=O)oc4c3)CCC5)CC2)c1 | 5.98 | 6.05 | 7.65 | –
O=c1oc2cc(OCCCCN3CCN(c4ccc(F)cc4)CC3)ccc2c2c1CCC2 | < 5.00 | 7.78 | 7.54 | –
O=c1oc2cc(OCCCCN3CCN(c4ccccc4)CC3)ccc2c2c1CCC2 | < 5.00 | 7.23 | 7.25 | –
COc1ccccc1N1CCN(CCCCOc2ccc3c4c(c(=O)oc3c2)CCCC4)CC1 | 6.12 | 5.99 | 5.95 | –
O=c1oc2cc(OCCCCN3CCN(c4ccccn4)CC3)ccc2c2c1CCC2 | < 5.00 | 5.85 | 5.90 | –

Source: ChEMBL document CHEMBL3120114, “Synthesis and evaluation of new coumarin derivatives as potential atypical antipsychotics” (Eur J Med Chem, 2014)
